System: OPM2-Luc orthotopic tumors
Assay: OPM2-Luc multiple myeloma orthotopic model, AMG 176 plus carfilzomib
Assay type: in vivo
Conditions: carfilzomib 3 mg/kg IV twice weekly
Protocol: On day 0, female NSG mice were injected IV with 1×10^6 OPM2-Luc human OPM2-Luc multiple myeloma tumor cells transfected with the firefly luciferase gene.

CC(C)C[C@H](NC(=O)[C@H](CCc1ccccc1)NC(=O)CN1CCOCC1)C(=O)N[C@@H](Cc1ccccc1)C(=O)N[C@@H](CC(C)C)C(=O)[C@@]1(C)CO1 [carfilzomib]
TGI (tumor burden) (AMG 176 20 mg/kg orally once daily, day 4 until day 20, female NSG mice): 82% | tolerability (NSG mice): Unscheduled deaths

From patent US12622918B2, “Formulations and dosages for administering a compound that inhibits MCL1 protein” (Amgen Inc., priority 2019, dated 2026)
